Data from PubChem BioAssay AID248 (DTP/NCI, 2004).
Inconclusive results and toxic doses are left out.

System: L1210 leukemia ip in BDF1 mice, survival T/C
Assay: NCI In Vivo Anticancer Drug Screen. Data for tumor model L1210 Leukemia (intraperitoneal) in B6D2F1 (BDF1) mice
Conditions: endpoint: mean survival time, higher = longer survival
Procedure, shortened: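 Tumor cells were implanted, animals were treated, and survival was followed. The result divides the treated measurement by the vehicle-control measurement.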

In the case of `O=c1cnn(C2OC(CO)C(O)C2O)c(=O)[nH]1` (stereo unspecified), the T/C (dose: 12.5 mg/kg/injection, schedule: Q#A X Z (ip), vehicle: saline) is reported as 160 % of control, the T/C (dose: 25.0 mg/kg/injection, schedule: Q01DX Z (im), vehicle: saline) is reported as 150 % of control and the T/C (dose: 25.0 mg/kg/injection, schedule: Q01DX Z (ip), vehicle: methylcellulose (MC)) is reported as 120 % of control. The T/C (dose: 25.0 mg/kg/injection, schedule: Q01DX Z (ip), vehicle: saline) was 156 % of control, the T/C (dose: 25.0 mg/kg/injection, schedule: Q#A X Z (ip), vehicle: saline) was 156 % of control and the T/C (dose: 32.0 mg/kg/injection, schedule: Q01DX009 (oral), vehicle: saline) was 151 % of control. For the same compound, the T/C (dose: 50.0 mg/kg/injection, schedule: Q01DX010 (ip), vehicle: saline) was 120 % of control, the T/C (dose: 50.0 mg/kg/injection, schedule: Q01DX Z (im), vehicle: saline) was 156 % of control and the T/C (dose: 50.0 mg/kg/injection, schedule: Q01DX Z (ip), vehicle: methylcellulose (MC)) was 120 % of control. For the same compound, the T/C (dose: 50.0 mg/kg/injection, schedule: Q01DX Z (ip), vehicle: saline) was 159 % of control, the T/C (dose: 50.0 mg/kg/injection, schedule: Q01DX Z (oral), vehicle: other) was 158 % of control and the T/C (dose: 50.0 mg/kg/injection, schedule: Q#A X Z (ip), vehicle: saline) was 164 % of control. For the same compound, the T/C (dose: 75.0 mg/kg/injection, schedule: Q01DX005 (ip), vehicle: saline) was 112 % of control, the T/C (dose: 88.0 mg/kg/injection, schedule: Q01DX Z (ip), vehicle: methylcellulose (MC)) was 122 % of control and the T/C (dose: 100.0 mg/kg/injection, schedule: Q01DX010 (ip), vehicle: saline) was 123 % of control. For the same compound, the T/C (dose: 100.0 mg/kg/injection, schedule: Q01DX Z (ip), vehicle: methylcellulose (MC)) was 116 % of control, the T/C (dose: 100.0 mg/kg/injection, schedule: Q01DX Z (oral), vehicle: saline) was 151 % of control and the T/C (dose: 100.0 mg/kg/injection, schedule: Q#A X Z (ip), vehicle: saline) was 176 % of control. The T/C (dose: 128.0 mg/kg/injection, schedule: Q03HX016 (oral), vehicle: saline) was 116 % of control, the T/C (dose: 132.0 mg/kg/injection, schedule: Q01DX Z (ip), vehicle: methylcellulose (MC)) was 117 % of control and the T/C (dose: 150.0 mg/kg/injection, schedule: Q01DX005 (ip), vehicle: saline) was 115 % of control. For the same compound, the T/C (dose: 150.0 mg/kg/injection, schedule: Q01DX Z (oral), vehicle: saline) was 172 % of control, the T/C (dose: 150.0 mg/kg/injection, schedule: Q## X003 (ip), vehicle: saline) was 105 % of control and the T/C (dose: 152.0 mg/kg/injection, schedule: Q## X024 (ip), vehicle: saline) was 123 % of control. The T/C (dose: 180.0 mg/kg/injection, schedule: Q01DX009 (ip), vehicle: saline) was 120 % of control, the T/C (dose: 200.0 mg/kg/injection, schedule: Q#A X Z (ip), vehicle: saline) was 176 % of control and the T/C (dose: 256.0 mg/kg/injection, schedule: Q03HX016 (ip), vehicle: saline) was 153 % of control. The T/C (dose: 300.0 mg/kg/injection, schedule: Q01DX005 (ip), vehicle: saline) was 118 % of control, the T/C (dose: 300.0 mg/kg/injection, schedule: Q01DX009 (oral), vehicle: saline) was 123 % of control and the T/C (dose: 300.0 mg/kg/injection, schedule: Q01DX Z (oral), vehicle: saline) was 159 % of control. The T/C (dose: 300.0 mg/kg/injection, schedule: Q03DX Z (ip), vehicle: other) was 119 % of control, the T/C (dose: 300.0 mg/kg/injection, schedule: Q## X003 (ip), vehicle: saline) was 106 % of control and the T/C (dose: 304.0 mg/kg/injection, schedule: Q## X024 (ip), vehicle: saline) was 151 % of control. For the same compound, the T/C (dose: 350.0 mg/kg/injection, schedule: Q01DX001 (ip), vehicle: saline) was 109 % of control, the T/C (dose: 350.0 mg/kg/injection, schedule: Q07DX Z (ip), vehicle: saline) was 109 % of control and the T/C (dose: 400.0 mg/kg/injection, schedule: Q01DX Z (oral), vehicle: other) was 191 % of control. The T/C (dose: 400.0 mg/kg/injection, schedule: Q#A X Z (ip), vehicle: saline) was 158 % of control, the T/C (dose: 512.0 mg/kg/injection, schedule: Q03HX016 (ip), vehicle: saline) was 162 % of control and the T/C (dose: 512.0 mg/kg/injection, schedule: Q03HX016 (oral), vehicle: saline) was 158 % of control. For the same compound, the T/C (dose: 600.0 mg/kg/injection, schedule: Q01DX001 (ip), vehicle: saline) was 101 % of control and the T/C (dose: 600.0 mg/kg/injection, schedule: Q01DX001 (oral), vehicle: saline) was 109 % of control.
